Measured values as given in patent US12138256B2, “Treatment of cardiopulmonary disorders” (Bayer Aktiengesellschaft, priority 2021, dated 2024).
“And” between values parts separate entries of the source, which are not always exact repeats. Equal values may be shown once.

What was measured:
[1] = tested on: anesthetized PAH minipigs; test: PAH minipig model: intratracheal application of dry powder formulations and different hydrates (PennCentury insufflator); format: in vivo, Göttingen minipig; conditions: micronized 375 μg/kg intratracheal @90 min
Description: After characterization of the effects of comparative example 11 after nebulization of compound solutions, in a further step the effects of crystalline forms of comparative example 11, e.g. sesquihydrate, e.g. example 6e on PAP and BP after inhaled application of different dry powder lactose formulations (table C2.1.8) were studied in anesthetized PAH minipigs.
As reference pure Lactose vehicle was applied in the beginning of each experiment.

[2] = tested on: thromboxane analog U46619 induced PAH in minipigs; test: Haemodynamics (PAP, BP) in the anesthetized thromboxane challenged PAH minipig after inhaled (nebulized) application (C-2.1); format: in vivo, Göttingen minipig; conditions: 10 μg/kg nominal dose, inhaled, n = 3
Method: Experiments were carried out in anesthetized Göttingen minipigs, anesthetized rats and conscious, telemetrically instrumented dogs. Acute pulmonary hypertension was induced for example by infusion of a thromboxane A2 analogon, by acute hypoxia treatment or hypoxia treatment over a number of weeks and/or by administration of monocrotaline. Test substances were applied via nebulization using the Nebutec® or Aeroneb® Pro nebulizer system, and/or by means of powder and/or solution applicators for experimental intratracheal administration (Liquid MicroSprayer®, Dry Powder Insufflator™, MicroSprayer®, Penn-Century Inc., Wyndmoor, PA, USA) or after solid nebulization inserted into the inspiration arm of the ventilation. Compounds were employed as solids or solutions depending on the molecular structure and the technical possibility depending on the experiment. The haemodynamic signals were recorded and evaluated by means of pressure transducers/amplifiers (Combitransducer B. Braun, Melsungen, Germany or CardioMEMS Inc., Atlanta, GA, USA) and Ponemah® or CardioMems® as data aquisition software. After long-term experiments (for example monocrotaline rat), it is also possible to carry out a histological evaluation.
Healthy Gottingen Minipigs® Ellegaard (Ellegaard, Denmark) of both sexes and having a weight of 2-6 kg were used. The animals were sedated by i.m. administration of about 25 mg/kg ketamine and about 10 mg/kg azaperone. Anaesthesia was initiated by i.v. administration of about 2 mg/kg ketamine and about 0.3 mg/kg midazolam. Maintenance of anaesthesia was by i.v. administration of about 7.5-30 mg/kg/h ketamine and about 1-4 mg/kg/h midazolam (rate of infusion 1-4 ml/kg/h) and about 150 μg/kg/h pancuronium bromide (for example Pancuronium-Actavis). After intubation, the animals were ventilated by the ventilator at a constant respiratory volume (10-12 ml/kg, 35 breaths/min; Avea®, Viasys Healthcare, USA, or Engstrom Carestation, GE Healthcare, Freiburg, Germany) such that an end-tidal CO2 concentration of about 5% was achieved. Ventilation was performed with room air, enriched with about 40% oxygen (normoxia). For the measurement of the haemodynamic parameters such as pulmonary arterial pressure (PAP), blood pressure (BP) and heart rate (HR), catheters were inserted into the carotid artery to measure the blood pressure, and a Swan-Ganz® catheter was introduced in a flow-directed manner via the jugular vein into the pulmonary artery. The haemodynamic signals were recorded and evaluated by means of pressure transducers (Combitransducer, B. Braun, Melsungen, Germany)/amplifiers and Ponemah® as data aquisition software.
After the instruments have been placed into the animals, continuous infusion of a thromboxane A2 analog was initiated to increase the pulmonary arterial pressure. […] D0400, or Cayman Chemical Company, cat. no. 16440), dissolved in physiological saline, were infused to achieve an increase of the mean pulmonary arterial pressure to values of over 25 mmHg. 30 minutes after the start of the infusion, a plateau was reached, and the experiment was started.
The test substances were administered as i.v. infusion or by inhalation. For the preparation of the solution for inhalation, the following procedure was adopted: For an animal having a weight of 4 kg, to prepare the stock solution (300 μg/kg), 1.2 mg of the test compound were weighed out and dissolved in a total volume of 3 ml (1% DMSO, 99% 0.2% strength citric acid solution, 1 N aqueous sodium hydroxide solution to adjust the pH to 8). The solution was then diluted to the concentration employed using 0.2% strength citric acid which had been adjusted to pH 8 beforehand with aqueous sodium hydroxide solution. In each test, 3 ml of the solution of test compound per 4 kg animal were nebulized in the inhalation arm of the respiratory circuit using the Aeroneb® Pro nebulizer system. The mean nebulization time was about 7 min from the start of the nebulization.

[3] = time not printed, 1st row after 310
[4] = time not printed, 2nd row after 310

O.O.O.O=C(O)c1ccc(CCN(CCc2ccccc2OCc2ccc(-c3ccc(C(F)(F)F)cc3)cc2Cl)[C@H]2CCCc3nc(C(=O)O)ccc32)cc1.O=C(O)c1ccc(CCN(CCc2ccccc2OCc2ccc(-c3ccc(C(F)(F)F)cc3)cc2Cl)[C@H]2CCCc3nc(C(=O)O)ccc32)cc1 [sesquihydrate ex. 6e]
BP ([1]; time 100): 99 mmHg and 111 mmHg and 117 mmHg
PAP ([1]; time 100): 40.7 mmHg and 38.7 mmHg and 39.6 mmHg
BP ([1]; time 110): 101 mmHg and 112 mmHg and 116 mmHg
PAP ([1]; time 110): 36.5 mmHg and 37.6 mmHg and 35.4 mmHg
BP ([1]; time 120): 101 mmHg and 114 mmHg and 115 mmHg
PAP ([1]; time 120): 34.3 mmHg and 36.4 mmHg and 30.8 mmHg
BP ([1]; time 130): 101 mmHg and 114 mmHg and 115 mmHg
PAP ([1]; time 130): 32.3 mmHg and 35.7 mmHg and 28.6 mmHg
BP ([1]; time 140): 99 mmHg and 120 mmHg and 114 mmHg
PAP ([1]; time 140): 30.8 mmHg and 35.0 mmHg and 27.5 mmHg
BP ([1]; time 150): 99 mmHg and 121 mmHg and 114 mmHg
PAP ([1]; time 150): 30.3 mmHg and 29.0 mmHg and 26.6 mmHg
BP ([1]; time 160): 100 mmHg and 122 mmHg and 114 mmHg
PAP ([1]; time 160): 29.0 mmHg and 30.3 mmHg and 26.9 mmHg
BP ([1]; time 170): 101 mmHg and 121 mmHg and 115 mmHg
PAP ([1]; time 170): 28.0 mmHg and 28.3 mmHg and 25.1 mmHg
BP ([1]; time 180): 99 mmHg and 119 mmHg and 115 mmHg
PAP ([1]; time 180): 25.8 mmHg and 30.8 mmHg and 25.3 mmHg
BP ([1]; time 190): 99 mmHg and 123 mmHg and 114 mmHg
PAP ([1]; time 190): 25.1 mmHg and 30.8 mmHg and 23.9 mmHg
BP ([1]; time 200): 98 mmHg and 116 mmHg and 113 mmHg
PAP ([1]; time 200): 25.5 mmHg and 30.6 mmHg and 24.6 mmHg
BP ([1]; time 210): 99 mmHg and 117 mmHg and 116 mmHg
PAP ([1]; time 210): 25.0 mmHg and 30.8 mmHg and 24.2 mmHg
BP ([1]; time 220): 97 mmHg and 123 mmHg and 114 mmHg
PAP ([1]; time 220): 24.3 mmHg and 32.9 mmHg and 23.6 mmHg
BP ([1]; time 230): 97 mmHg and 119 mmHg and 114 mmHg
PAP ([1]; time 230): 24.0 mmHg and 31.5 mmHg and 23.6 mmHg
BP ([1]; time 240): 97 mmHg and 119 mmHg and 112 mmHg
PAP ([1]; time 240): 24.3 mmHg and 31.0 mmHg and 23.5 mmHg
BP ([1]; time 250): 97 mmHg and 118 mmHg and 111 mmHg
PAP ([1]; time 250): 24.2 mmHg and 31.3 mmHg and 22.9 mmHg
BP ([1]; time 260): 96 mmHg and 116 mmHg and 112 mmHg
PAP ([1]; time 260): 24.0 mmHg and 31.5 mmHg and 23.5 mmHg
BP ([1]; time 270): 99 mmHg and 115 mmHg and 109 mmHg
PAP ([1]; time 270): 24.5 mmHg and 29.8 mmHg and 22.6 mmHg
BP ([1]; time 280): 97 mmHg and 111 mmHg and 110 mmHg
PAP ([1]; time 280): 23.9 mmHg and 29.8 mmHg and 22.8 mmHg
BP ([1]; time 290): 97 mmHg and 110 mmHg and 107 mmHg
PAP ([1]; time 290): 23.5 mmHg and 30.3 mmHg and 22.0 mmHg
BP ([1]; time 300): 98 mmHg and 109 mmHg and 108 mmHg
PAP ([1]; time 300): 24.6 mmHg and 30.0 mmHg and 22.2 mmHg
BP ([1]; time 310): 97 mmHg and 109 mmHg and 105 mmHg
PAP ([1]; time 310): 23.9 mmHg and 29.6 mmHg and 21.9 mmHg
BP [1, 3]: 94 mmHg and 108 mmHg and 105 mmHg
PAP [1, 3]: 25.3 mmHg and 29.1 mmHg and 22.5 mmHg
BP [1, 4]: 97 mmHg and 108 mmHg and 105 mmHg
PAP [1, 4]: 25.1 mmHg and 28.5 mmHg and 21.6 mmHg

CC#CCC(C)[C@H](O)/C=C/[C@@H]1[C@H]2C/C(=C/CCCC(=O)O)C[C@H]2C[C@H]1O (stereo partly drawn) [Ventavis ®]
PAP % changes vs prevalue, mean ([2]; time 0 min): 0%
PAP % changes vs prevalue, mean ([2]; time 10 min): −30.3%
PAP % changes vs prevalue, mean ([2]; time 20 min): −20.7%
PAP % changes vs prevalue, mean ([2]; time 30 min): −6.9%
PAP % changes vs prevalue, mean ([2]; time 40 min): 1.7%
PAP % changes vs prevalue, mean ([2]; time 50 min): 4.9%
